Assay results taken from ChEMBL document CHEMBL4257529, “Antifungal amphiphilic kanamycins: new life for an old drug” (Medchemcomm, 2018).

Legend:
Assay type in all cases: functional
Fusarium graminearum [1] = experiment: Antifungal activity against Fusarium graminearum infected in wheat plant assessed as fusarium head blight incidence at 0.512 L/ha (reference value: 70%)
Fusarium graminearum [2] = experiment: Antifungal activity against Fusarium graminearum infected in wheat plant assessed as fusarium head blight incidence at 1.02 L/ha (reference value: 70%)
Fusarium graminearum [3] = experiment: Antifungal activity against Fusarium graminearum infected in wheat plant assessed as fusarium head blight severity at 1.02 L/ha (reference value: 75%)
Fusarium graminearum [4] = experiment: Antifungal activity against Fusarium graminearum infected in wheat plant assessed as fusarium head blight index at 0.512 L/ha (reference value: 53%)
Fusarium graminearum [5] = experiment: Antifungal activity against Fusarium graminearum infected in wheat plant assessed as fusarium head blight index at 1.02 L/ha (reference value: 53%)
Fusarium graminearum [6] = experiment: Antifungal activity against Fusarium graminearum infected in wheat plant assessed as fusarium head blight severity at 0.512 L/ha (reference value: 75%)

CC1(C)CCC(Cc2ccc(Cl)cc2)C1(O)Cn1cncn1 (stereo unspecified) [METCONAZOLE]
Activity (Fusarium graminearum [1]): 13% | Activity (Fusarium graminearum [2]): 12% | Activity (Fusarium graminearum [3]): 58% | Activity_index (Fusarium graminearum [4]): 9% | Activity_index (Fusarium graminearum [5]): 7% | Activity (Fusarium graminearum [6]): 69%
